Experimental data published in patent US20260091078A1, “OLIGOPEPTIDE THAT INHIBITS ANGIOGENESIS AND VASCULAR FUNCTION” (UNIVERSIDAD NACIONAL AUTONOMA DE MEXICO, priority 2019, published 2026).

How the values were obtained:
[1] = tested on: immortalized bovine umbilical-vein endothelial cells (BUVEC E6E7); assay: Proliferation of BUVEC E6E7 endothelial cells stimulated with VEGF (EdU click assay); type: cell-based; settings: 100 nM, VEGF 50 ng ml^-1
Protocol: (§1) On a 96-well plate treated for cell culture, BUVEC E6E7 and HUVEC cells were seeded at a density of ˜14,000 and ˜11,000 cells cm^−2, respectively. BUVEC E6E7 cells were maintained in F12K culture media with 10% (v/v) fetal bovine serum (FBS) and the HUVEC in F12K media supplemented with 20% of FBS, 100 μg ml^−1 heparin and 25 μg ml^−1 of endothelial cell growth supplement (ECGS). After 24 hours, the cells were starved with FBS-reduced media (0.1% of FBS for BUVEC E6E7 and 0.5% for HUVEC) for 16 hours to synchronize cells in phase GO of the reproductive cycle. After this time, FBS and heparin were replenished only to HUVEC. The cells were then treated with vasoinhibin or the oligopeptide THGRGFI in concentrations ranging from 0.001 to 100 nM for 24 hours in the presence of 10 μM of the thymidine analog 5-Ethynyl-2′-deoxyuridine (EdU) and 50 ng ml^−1 VEGF for the BUVEC E6E7 or the combination of 25 ng ml^−1 VEGF and 20 ng ml^−1 bFGF for HUVEC. At the end of the experiment, cells were fixed with 4% paraformaldehyde, permeabilized with 0.5% Triton X-100 in TBS1x, and stained to detect the newly synthetized DNA by the incorporation of EdU using the “click” assay (which involves a copper catalyzed reaction to covalently bind fluorescent azide to the EDU incorporated to DNA). Total DNA was counterstained with Hoechst 33342 and the “click”-stained nuclei were quantified and plotted relative to the total number of Hoechst 33342-stained nuclei.
For the assay, BUVEC E6E7 cells were seeded at a density of ˜14′000 cells cm^−2 in a 96 well plate with F12K with 10% (v/v) FBS. After 24 hours, cells were starved with 0.1% of FBS for GO synchronization for ˜16 hours. Next, the cells were treated with the different oligopeptides in presence of 10 μM of the thymidine analog EdU and 50 ng ml^−1 of VEGF. Finally, the cells were fixed, permeabilized, and stained for the newly synthetized DNA by the EdU incorporation through the ‘click’ assay. The total DNA was stained with Hoechst 33342 and the percentage of ‘click’-stained nuclei over the total nuclei was a measure of proliferation.

[2] = tested on: human umbilical-vein endothelial cells (HUVEC); assay: Proliferation of HUVEC stimulated with VEGF and bFGF (EdU click assay); type: cell-based; settings: for dose-response effect (biological potency) on proliferation of HUVEC: different doses, 24 hours, VEGF 25 ng ml^-1 and bFGF 20 ng ml^-1
Protocol: as §1
HUVEC were seeded on a 96 well plate at a density of ˜11,000 cells cm^−2 and maintained in F12K supplemented with 20% of FBS, 100 μg ml^−1 heparin and 25 μg ml^−1 endothelial cell growth supplement (ECGS). After 24 hours, the cells were synchronized in GO with starving conditions (FBS 0.5%) for 16 hours, and after that FBS and the heparin were replenished. Cells were then treated with THGRGFI, the different oligopeptides and 123 amino acids vasoinhibin, each in a concentration of 100 nM, for 24 hours in presence or absence of 10 μM of thymidine analog 5-Ethynyl-2′-deoxyuridine (EdU) and a combination of 25 ng ml^−1 VEGF and 20 ng ml^−1 bFGF. Finally, the cells were fixed with 4% paraformaldehyde, permeabilized with 0.5% of Triton X-100 in TBS1x and stained for the newly synthetized DNA with the ‘click’ method that detects the EdU incorporation. Total DNA was stained with Hoechst 33342 and the percentage of ‘click’-stained nuclei relative to total nuclei (Hoechst 33342-stained) indicated cell proliferation.
Approximately 11,000 HUVEC cells cm^−2 were seeded on a 96 well plate in F12K media with 20% FBS, 100 μg ml^−1 heparin and 25 μg ml^−1 ECGS. After 24 hours, cells were starved with 0.5% of FBS for ˜16 hours, and after that time the FBS and heparin were added again and cells treated with different doses of the alanine substituted oligopeptides for 24 hours, in the presence of EdU and a combination of 25 ng ml^−1 VEGF and 20 ng ml^−1 bFGF. Finally, the cells were fixed, permeabilized and stained to quantify the synthesis of DNA as a sign of proliferation.

Substance	effect on VEGF-induced proliferation of BUVEC E6E7 at single concentration [1]	dose-response effect (biological potency) on proliferation of HUVEC [2]	also measured
GFITKAI (Amino acids 49 to 55 of human prolactin; listed as Homo sapiens)	did not shown any activity		
GRGFITK (Amino acids 47 to 53 of human prolactin; listed as Homo sapiens)	significatively inhibited the VEGF-induced proliferation of endothelial cells		
His Gly Arg [HGR]		very similar to the oligopeptide THGRGFI	
R4A: THGRGFI with the arginine at position X4 substituted by alanine (THGAGFI)		did not inhibit endothelial proliferation	
THIRGGF (scrambled sequence of SEQ ID NO 1) [Scr2, reference compound]			effect on proliferation of HUVEC at single concentration ([2]; 100 nM, VEGF 25 ng ml^-1 and bFGF 20 ng ml^-1, 24 hours): did not have any effect
TKAINSC (Amino acids 52 to 58 of human prolactin; listed as Homo sapiens)	did not shown any activity		
Thr His Gly Arg (THGR; Amino acids 45 to 48 of human prolactin; listed as Homo sapiens)		very similar to the oligopeptide THGRGFI	
